Laboratory results taken from patent US20040180959A1, “Gabapentin analogues for fibromy algia and concomitant disorders” (priority 2002, published 2004).

Tested on: Sprague-Dawley rats
Test: Rat model of footpad tactile allodynia from prior injection of acid into the gastrocnemius muscle
Type: in vivo
Settings: for Mean Paw Withdrawal Threshold before dose (g ± S.E.M.): after acid injection
Method: A rat model of persistent mechanical allodynia has been developed that is consistent with the muscle tenderness found in these patients. […] This model was utilized to evaluate compound A for its ability to inhibit allodynia.
On Day 0, male Sprague-Dawley rats (˜200 g body weight) in their dark cycle were placed in suspended wire-bottom cages and allowed to acclimate for 0.5 hours. […] Von Frey hairs were applied to the plantar surface for up to 6 seconds, and a flinching of the paw during that time frame was considered a positive response. After assessment, the right gastrocnemius muscle was shaved, swabbed with alcohol, and injected with 0.1 mL of 0.9% NaCl solution acidified to pH 4 with HCl. The injection was repeated on Day 5. Animals were manipulated with a dynamic plantar aesthesiometer (Ugo Basile, Comerio-Varese, Italy) on Days 6, 7, and 8 to facilitate induction of the allodynia. To screen the rats for the development of allodynia, the 15.1 g Von Frey hair was applied to the ipsilateral paw on Day 11. Positive responders from that test were included in the compound evaluation study. On Day 12 (the day of peak allodynia), animals were assigned into treatment groups, and then their ipsilateral paw withdrawal thresholds were determined to establish the allodynia (reduction in paw withdrawal threshold) compared to baseline values. Rats were then orally dosed with 10 mL/kg vehicle (0.5% hydroxypropyl-methylcellulose/0.2% Tween 80) or the indicated dose of compound A. Paw withdrawal thresholds were reassessed by Von Frey hairs in blinded fashion 2 hours after dosing for the dose-response study, and 2, 5, 8, and 24 hours after dosing in the time course experiment. The inhibition of allodynia was determined for each animal by dividing the increase in paw withdrawal threshold after treatment by the difference between baseline and pretreatment paw withdrawal values. This fraction was then converted to percent inhibition by multiplying by 100.

[1] = 10 mg/kg oral, 2 hours after treatment (Table II)
[2] = 10 mg/kg oral, 2 hr after dose (Table I)
[3] = 10 mg/kg oral, 5 hours after treatment
[4] = 10 mg/kg oral, 8 hours after treatment
[5] = 10 mg/kg oral, 24 hours after treatment

## C[C@H]1CC(CN)(CC(=O)O)C[C@@H]1C [Compound A, (3S, 4S)-(1-Aminomethyl-3,4-dimethyl-cyclopentyl)-acetic acid]
3 mg/kg group, before oral dose
  Mean Paw Withdrawal Threshold before dose (g ± S.E.M.): 6.3 ± 0.8 g
3 mg/kg oral, 2 hr after dose
  Mean % Inhibition of Allodynia: 33%
  Mean Paw Withdrawal Threshold 2 hr after dose (g ± S.E.M.): 11.4 ± 1.7 g
10 mg/kg group, Prior to Treatment (Table II)
  Mean Paw Withdrawal Threshold (g ± S.E.M.): 6.5 ± 0.9 g
10 mg/kg group, before oral dose (Table I)
  Mean Paw Withdrawal Threshold before dose (g ± S.E.M.): 6.2 ± 1.0 g
10 mg/kg oral
  Efficacy sustained throughout observation period after dosing: ≥ 24 h
[1]
  Mean % Inhibition of Allodynia: 60% ± 10
  Mean Paw Withdrawal Threshold after treatment (g ± S.E.M.): 16.0 ± 1.4 g
[2]
  Mean % Inhibition of Allodynia: 72%
  Mean Paw Withdrawal Threshold 2 hr after dose (g ± S.E.M.): 17.4 ± 1.5 g
[3]
  Mean % Inhibition of Allodynia: 62% ± 10
  Mean Paw Withdrawal Threshold after treatment (g ± S.E.M.): 15.2 ± 1.8 g
[4]
  Mean % Inhibition of Allodynia: 31% ± 12
  Mean Paw Withdrawal Threshold after treatment (g ± S.E.M.): 9.9 ± 2.0 g
[5]
  Mean % Inhibition of Allodynia: 46% ± 17
  Mean Paw Withdrawal Threshold after treatment (g ± S.E.M.): 13.3 ± 2.8 g
oral, 2 hours after dosing
  Minimum effective dose for attenuating allodynia: 10 mg/kg
